Test results: article PMC13267113 (npj Drug Discovery, 2025)
Values after ≈ are worked out from the molar mass of the structure shown.

Assays:
[1] = Mouse plasma protein binding; type: in vitro ADME; conditions: read-out: Mouse PPB (converted)
physchem = conditions: zebrafish embryo incubation medium, aqueous buffer, kinetic from dmso stock
[2] = test system: HCV pseudoparticle (HCVpp; JFH1 genotype 2a, Con1 genotype 1b) entry into Huh-7.5; experiment: HCVpp cell entry assay; conditions: Hepatitis C virus, GETYPE1B|GETYPE2A, Huh7.5, 72 h, read-out: concentration of 50% entry inhibition
HeLa (human, cervix) = experiment: MTT cytotoxicity HeLa; type: cell-based; conditions: 72 h, n = 3
Experimental: (§1) All cell types were cultivated at 37 °C with 5% CO2. HepG2, HEK293, HCT116, CHO-K1, HeLa-CCL-2 and Huh-7.5 were purchased from ATCC. The respective cell media (Gibco) were supplemented with 10% FBS (Gibco) before usage. Cells were used between passages #5 and #30. To obtain biological repeats, cells were split separately for at least two passages.
(§2) Cells were washed with PBS and 0.5 mL trypsin was added. Afterwards, cells were incubated for 5 min before adding 10 mL medium containing 10% FBS. Per well, 120 µL cell suspension (5 × 10^4 cells/mL) was seeded in transparent 96-well cell bind plates and incubated for 2 h (37 °C, 5% CO2). A dilution series (1:3) of test compounds was prepared in respective media containing 10% FBS and added (60 µL) to the prepared cell plate. Cells were incubated for a further 72 h (37 °C, 5% CO2). Next, 20 µL MTT (5 mg/mL in PBS) was added to each well and incubated for 2 h (37 °C, 5% CO2). The wells were emptied and 100 µL isopropanol/10 N HCl (1000:4) per well was added.
(§3) The plates were analyzed by measuring the absorbance at 570 nm (plate reader Infinite® 200 Pro, Tecan). After normalization of data to the respective solvent controls, the calculated percentage of growth inhibition was plotted using GraphPad Prism software (version 10.0.2).

U-2 OS cells = experiment: Mitochondrial superoxide formation (MitoSOX Red); type: cell-based, human; conditions: n = 6
Experimental: CYS was tested for its potential to induce oxidative stress in U-2 OS cells. Therefore, 120 µL of a cell suspension in McCoy’s (+10% FBS) containing 5 × 10^4 cells/mL were seeded into black 96-well imaging plate (BD Falcon). The plates were incubated for two days (37 °C, 5% CO2) until the cells reached approximately 70% confluence. Subsequently, the cells were washed with HBSS buffer, prior to adding CYS (20 µM) and the ROS inducer menadione (50 µM) as positive control, along with the staining solution (HBSS, calcium, magnesium, 5 µM MitoSOX red and 10 µg/mL Hoechst (Thermo)). To check for ROS protective properties, menadione (50 µM) was added directly to the staining solution. […] Afterwards, the cells were washed twice with HBSS. The cells were imaged using an automated fluorescence microscope (Celldiscoverer 7, Zeiss) (excitation: […]) to analyze the fluorescence intensity of the superoxide tracker MitoSOX red. The experiment was carried out with six replicates per condition. Quantification was done by high-content image analysis using the ZEN software (version 3.4, blue edition, Zeiss). Data presentation was done using GraphPad Prism (version 10.0.3) with ordinary one-way ANOVA including multiple comparisons to the control group for statistical analysis of the sample without ROS induction via menadione in the staining solution. Multiple unpaired t test was used to compare samples for ROS protective properties, which were incubated with menadione in the staining solution.

[3] = test system: U2OS (human, osteosarcoma); experiment: MTT cytotoxicity U2OS; type: cell-based; conditions: 72 h, n = 3
Experimental: as §2, §3

Mouse plasma stability = type: in vitro ADME; conditions: read-out: Mouse plasma t1/2
HCT116 (human, colon) = experiment: MTT cytotoxicity HCT116; type: cell-based; conditions: HCT-116, 72 h, n = 3
Experimental: as §1, §2, §3

HepG2 (human, liver) = experiment: MTT cytotoxicity HepG2; type: cell-based; conditions: 72 h, n = 3
Experimental: as §1, §2, §3

[4] = Metabolic stability in mouse liver microsomes; type: in vitro ADME; conditions: pooled mouse liver microsomes, 0.5 mg/mL microsomes, NADPH
Experimental: The metabolic stability of testosterone, verapamil and ketoconazole was determined in parallel to confirm the enzymatic activity of mouse liver microsomes. For combination experiments, cobicistat was added to the incubation mixture together with test compounds. […] Concentration of the remaining test compound at the different time points was analyzed by HPLC-MS/MS (Vanquish Flex coupled to a TSQ Altis Plus, Thermo Fisher, Dreieich, Germany) and used to determine half-life (t1/2).

[5] = biological target: T1, human DNA topoisomerase IIα (TOP2A) (Homo sapiens, UniProt P11388); experiment: human topoisomerase II alpha decatenation assay; type: biochemical; conditions: n = 3, read-out: IC50 against TOP2A
T1 construct: purchased Inspiralis
Experimental: Inhibition of topoisomerase activity was examined using the human topoisomerase II alpha decatenation assay kit (Inspiralis) as indicated by the manufacturer. Briefly, a compound dilution series was prepared in DMSO. Water, dilution buffer, assay buffer, plasmid and enzyme were mixed with the compound solution and incubated at 37 °C for 30 min. A positive control (100% activity) was prepared without the compound, and a negative control (0% activity) was prepared without the compound and the enzyme. The reaction was stopped by adding gSTEB-buffer and chloroform/isoamylalcohol (24:1 v/v). The samples were vortexed and centrifuged before running gel electrophoresis. The gel was stained with ethidium bromide and imaged using a Fusion Fx gel imager (Vilber Lourmat). Subsequent analysis was done using ImageJ and GraphPad Prism (Version 10.0.2).

HEK293 (human, kidney) = experiment: MTT cytotoxicity HEK293; type: cell-based; conditions: HEK293, MTT, 72 h, n = 3, read-out: IC50 HEK293 (human, kidney)
Experimental: as §1, §2, §3

[6] = Metabolic stability in mouse hepatocytes; type: in vitro ADME
Experimental: For the evaluation of combined phase I and phase II metabolic stability, the compound (1 μM) was incubated with 0.25 × 10^6 cells/mL of pooled mouse hepatocytes (Xenotech, Kansas City, USA). Cells were thawed in Leibovitz’s L-15 medium without phenol red (ThermoFisher Scientific, Waltham, USA). Briefly, cells were transferred into 50 mL of medium, followed by centrifugation at 55 g for 6 min. Supernatant was discarded, and the cell count was determined after gently resuspending the cell pellet in 1mL of medium. Hepatocytes were diluted to 0.5 × 10^6 cells/mL and incubated at 37 °C, 700 rpm for 10 min, to achieve the desired final cell count after addition of an equal volume of test compounds in medium, leading to a final test concentration of 1 µM at 1% DMSO. […] For the determination of metabolism in the presence of cobicistat, this drug was added together with test compounds in the desired concentration range. The metabolic stability of testosterone, verapamil, ketoconazole and 7-hydroxycoumarine were determined in parallel to confirm the enzymatic activity of mouse hepatocytes. […] Concentration of the remaining test compound at the different time points was analyzed by HPLC-MS/MS (Vanquish Flex coupled to a TSQ Altis Plus, Thermo Fisher, Dreieich, Germany) and used to determine half-life (t1/2). Intrinsic clearance was calculated as follows:2 CLintµL/min×10^6cells=Incubation volumeµL×ln(2)/Cells in incubation mixture[10^6]×t1/2
For metabolite identification studies, test compounds were incubated at 10 µM final concentration and samples were analyzed using HPLC-HRMS (Ultimate 3000 coupled to a Q Exactive Focus, Thermo Fisher, Dreieich, Germany). […] Blank samples using DMSO were run in parallel for background subtraction. Sample processing for metabolite identification was performed using Compound Discoverer 3.2 (Thermo Fisher, Dreieich, Germany). Metabolites were identified based on mass shifts and feasibility of the metabolic reaction, also in view of MS peak intensities over time.

SCARB1 = test system: SCARB1; parameters: method as in PMID 19815817; conditions: previous in vivo mouse studies; cited from earlier work
[7] = parameters: method as in PMID 26437376, PMID 24041792; conditions: cited from earlier work

T1 sequence (P11388 whole entry): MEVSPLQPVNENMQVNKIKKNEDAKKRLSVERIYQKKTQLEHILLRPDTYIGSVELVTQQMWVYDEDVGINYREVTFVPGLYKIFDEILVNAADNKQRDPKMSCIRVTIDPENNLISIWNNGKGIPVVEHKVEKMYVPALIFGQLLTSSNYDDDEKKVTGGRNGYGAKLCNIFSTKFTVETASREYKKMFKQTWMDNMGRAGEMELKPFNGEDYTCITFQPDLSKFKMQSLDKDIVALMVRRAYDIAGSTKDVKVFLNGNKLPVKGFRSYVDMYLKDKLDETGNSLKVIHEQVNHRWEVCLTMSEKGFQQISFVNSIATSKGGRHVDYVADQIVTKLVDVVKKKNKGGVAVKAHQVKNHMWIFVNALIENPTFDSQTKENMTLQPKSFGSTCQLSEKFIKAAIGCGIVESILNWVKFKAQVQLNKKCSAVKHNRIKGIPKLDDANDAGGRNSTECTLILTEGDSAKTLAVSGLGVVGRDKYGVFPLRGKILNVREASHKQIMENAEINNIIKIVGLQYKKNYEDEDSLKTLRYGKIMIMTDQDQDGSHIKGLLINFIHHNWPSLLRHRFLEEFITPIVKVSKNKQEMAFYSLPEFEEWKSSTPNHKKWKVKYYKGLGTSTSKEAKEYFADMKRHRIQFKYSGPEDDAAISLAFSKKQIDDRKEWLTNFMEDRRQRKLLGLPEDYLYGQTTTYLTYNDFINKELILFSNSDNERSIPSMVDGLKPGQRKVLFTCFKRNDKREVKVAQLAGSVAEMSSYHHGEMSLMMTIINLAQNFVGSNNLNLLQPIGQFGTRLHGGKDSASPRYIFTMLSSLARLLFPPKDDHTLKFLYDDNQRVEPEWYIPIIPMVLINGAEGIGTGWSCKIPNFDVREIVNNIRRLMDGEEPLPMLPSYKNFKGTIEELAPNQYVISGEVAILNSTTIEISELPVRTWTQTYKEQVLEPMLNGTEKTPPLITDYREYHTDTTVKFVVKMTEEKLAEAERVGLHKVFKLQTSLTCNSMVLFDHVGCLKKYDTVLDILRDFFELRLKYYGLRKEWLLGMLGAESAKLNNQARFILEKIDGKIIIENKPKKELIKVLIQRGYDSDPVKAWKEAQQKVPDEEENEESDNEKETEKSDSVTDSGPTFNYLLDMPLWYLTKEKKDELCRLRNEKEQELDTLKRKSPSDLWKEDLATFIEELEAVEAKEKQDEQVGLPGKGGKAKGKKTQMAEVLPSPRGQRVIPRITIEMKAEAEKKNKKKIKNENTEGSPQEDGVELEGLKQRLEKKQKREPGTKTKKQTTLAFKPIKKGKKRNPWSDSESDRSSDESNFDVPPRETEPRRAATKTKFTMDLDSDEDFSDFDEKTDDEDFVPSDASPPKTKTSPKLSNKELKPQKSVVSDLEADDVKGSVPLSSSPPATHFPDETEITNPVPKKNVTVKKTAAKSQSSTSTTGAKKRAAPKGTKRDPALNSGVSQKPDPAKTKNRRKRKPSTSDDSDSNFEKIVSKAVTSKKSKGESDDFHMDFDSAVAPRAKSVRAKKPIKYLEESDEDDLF

Structure (SMILES) | fraction unbound [1] | solubility (physchem) | IC50 [2] | IC50 (HeLa (human, cervix)) | basal superoxide radical levels vs DMSO control (U-2 OS cells; 20 µM, MitoSOX Red, no menadione) | menadione-induced superoxide formation on co-treatment (U-2 OS cells; CYS 20 µM + menadione 50 µM) | IC50 [3] | half-life (Mouse plasma stability) | IC50 (HCT116 (human, colon)) | IC50 (HepG2 (human, liver)) | microsomal CLint at 1 μM ([4]; read-out: MLM Clint) | half-life at 1 µM ([4]; read-out: MLM t1/2) | IC50 [5] | IC50 (HEK293 (human, kidney)) | major metabolic pathways ([6]; metabolite identification, 10 µM, mouse hepatocytes) | hepatocyte CLint at 1 µM ([6]; mouse, pooled mouse hepatocytes, 1 μM, 0.25 × 10^6 cells/mL) | half-life at 1 µM ([6]; mouse, pooled mouse hepatocytes, 1 μM, 0.25 × 10^6 cells/mL, read-out: Mouse Hepatocytes t1/2) | effect of SCARB1 suppression in mice (SCARB1) | safety in humans [7]
C=CC1CC1(NC(=O)C12CC(NC(=O)c3ccc(C#N)cc3)(C1)C2)C(=O)Nc1ccc(C(=O)Nc2ccc(C(=O)Nc3ccc(C(=O)O)cc3)c(O)c2OC(C)C)cc1 (stereo not shown) [Cysto-180] | 0.041 | 200 µM (≈ 159 µg/mL) | ~3.3 µM | > 37 µM | decrease of superoxide radical levels | no significant increase of superoxide | > 20 µM | > 4 h | > 20 µM | > 20 µM | < 11.6 µL/min/mg | > 2 h | 12.2 ± 0.63 µM | > 20 µM | amide bond hydrolysis and glucuronidation | 26 µL/min/1e6 cells | 0.683 ± 0.267 h |  | 
COc1c(NC(=O)C(=O)c2ccc(OCCN3CCOCC3)c3ccccc23)cc(C(C)(C)C)cc1NS(C)(=O)=O [ITX5061] |  |  |  |  |  |  |  |  |  |  |  |  |  |  |  |  |  | increased beneficial HDL cholesterol levels and partially reduced atherosclerotic lesions | safety in humans has been demonstrated
